Where two headings read alike, the source gives them in different places.
Key:
OCT2 = target: T1, OCT2 (Homo sapiens, UniProt O15244); experiment: Inhibition of model substrate uptake in OCT2-overexpressing HEK293 cells; conditions: for inhibition at 5 min, 20 μM / (S,S)-Ethambutol inhibition [%] / ASP+ inhibition [%] / N-Ethyllidocaine inhibition [%]: OCT2, 20 μM inhibitor, 5 min
T1 sequence (O15244 1-555): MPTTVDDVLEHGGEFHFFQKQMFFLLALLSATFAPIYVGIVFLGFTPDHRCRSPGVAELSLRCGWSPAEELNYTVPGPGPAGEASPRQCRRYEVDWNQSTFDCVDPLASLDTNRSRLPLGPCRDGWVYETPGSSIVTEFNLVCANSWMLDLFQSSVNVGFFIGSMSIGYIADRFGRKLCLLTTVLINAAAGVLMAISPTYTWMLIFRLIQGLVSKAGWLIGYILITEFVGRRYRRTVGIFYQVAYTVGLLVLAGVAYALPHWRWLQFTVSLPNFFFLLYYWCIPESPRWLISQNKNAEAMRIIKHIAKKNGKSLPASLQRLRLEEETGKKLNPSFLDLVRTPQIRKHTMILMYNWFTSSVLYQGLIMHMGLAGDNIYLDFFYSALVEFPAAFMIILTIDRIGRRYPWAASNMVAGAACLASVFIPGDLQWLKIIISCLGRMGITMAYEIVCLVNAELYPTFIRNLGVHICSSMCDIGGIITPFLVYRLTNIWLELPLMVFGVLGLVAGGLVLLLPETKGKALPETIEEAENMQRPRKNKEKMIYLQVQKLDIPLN
Description: (§1) All experiments were carried out in transporter-overexpressing HEK293 cells. OCT1-, OCT2-, NET-, DAT-, and SERT-overexpressing cells as well as the empty-vector transfected control cell line were generated as described earlier,[26]−[28] whereas the OCT3-overexpressing HEK293 cells were generous gift of from Drs. Koepsell and Gorbulev (University of Würzburg, Germany). All cells were cultivated in Dulbecco’s modified Eagle’s medium (DMEM) supplemented with 10% (v/v) FCS, penicillin (100 U/mL), and streptomycin (100 μg/mL) and kept in culture for no longer than 30 passages.
(§2) As for the transport experiments, 300,000 HEK293 cells were plated in poly-D-lysine-coated 24-well plates 2 days ahead of the experiment. On every plate, two wells of empty vector (EV)-transfected cells were used as a control to account for the passive influx of the model substrate, and two wells of transporter-overexpressing cells were used to determine the noninhibited uptake of the model substrate. Cells were initially washed once with 37 °C HBSS+ and then incubated with 2 μM model substrate (0.2 μM for MPP^+ uptake by MATs) with and without 20 μM inhibitor for 5 min. For concentration-dependent inhibition experiments, the cells were incubated with increasing inhibitor concentrations. The incubation was terminated by aspiration of the buffer before cells were washed twice with ice-cold HBSS+ and lysed in 80% acetonitrile. Cell lysates were transferred into a black 96-well plate for the fluorescence measurement of ASP^+ or used for sample preparation for LC–MS/MS analysis. […] Fluorescence quantification was performed in technical duplicates.
(§3) Transporter-mediated net uptake was calculated as the difference between uptake in transporter-overexpressing cells and that in the empty-vector-transfected control. […] Vmax is the maximum transport velocity, while Km is defined as the substance concentration that is required to reach half of vmax. The ratio of vmax over Km is termed intrinsic clearance Clint. For inhibition experiments, the transport activity was calculated by using the following equation [drawing 1]
(§4) SubstrateEV refers to the passive uptake of model substrates into the control cells and substratenoninhibited is the uptake in transporter-overexpressing cells without the presence of any inhibitor. The percent inhibition values are then calculated as described in the following [drawing 2]
(§5) For concentration inhibition experiments, the transporter activity was plotted against the log10 of inhibitor concentrations, and the data were fitted by the following equation to determine IC50 values [drawing 3]
(§6) Y refers to the transporter activity, whereas Ymax is the maximum and Ymin is the minimal transporter activity. X is the log10 of inhibitor concentrations, IC50 is the half-maximal inhibitory concentration, and hill slope is the slope factor.

OCT3 = target: T2, OCT3 (Homo sapiens, UniProt O75751); experiment: Inhibition of model substrate uptake in OCT3-overexpressing HEK293 cells; type: cell-based; conditions: for inhibition at 20 µM / (S)-Zolmitriptan inhibition [%] / (S,S)-Ethambutol inhibition [%] / ASP+ inhibition [%]: 20 μM inhibitor; for IC50: read-out: IC50; for (S)-Zolmitriptan inhibition [%] / (S,S)-Ethambutol inhibition [%] / ASP+ inhibition [%]: OCT3
T2 construct: expressed in transfected cells; host or cells: HEK293
T2 sequence (O75751 1-556): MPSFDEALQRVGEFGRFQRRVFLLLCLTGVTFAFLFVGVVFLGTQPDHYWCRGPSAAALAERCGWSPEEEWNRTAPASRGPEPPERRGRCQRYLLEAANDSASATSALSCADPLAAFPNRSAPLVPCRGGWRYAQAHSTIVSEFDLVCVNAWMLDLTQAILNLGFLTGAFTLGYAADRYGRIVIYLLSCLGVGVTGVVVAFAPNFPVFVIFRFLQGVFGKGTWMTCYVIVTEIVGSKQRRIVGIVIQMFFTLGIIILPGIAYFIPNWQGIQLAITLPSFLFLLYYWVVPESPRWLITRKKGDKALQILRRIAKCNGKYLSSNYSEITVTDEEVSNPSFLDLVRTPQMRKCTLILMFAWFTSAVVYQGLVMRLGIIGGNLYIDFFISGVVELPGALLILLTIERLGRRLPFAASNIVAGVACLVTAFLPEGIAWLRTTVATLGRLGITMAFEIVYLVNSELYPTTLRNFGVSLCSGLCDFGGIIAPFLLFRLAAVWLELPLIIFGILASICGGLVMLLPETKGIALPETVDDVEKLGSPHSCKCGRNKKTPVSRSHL
Description: as §1, §2, §3, §4, §5, §6

OCT1 = target: T3, OCT1 (Homo sapiens, UniProt O15245); experiment: Inhibition of model substrate uptake in OCT1-overexpressing HEK293 cells; type: cell-based; design: expressed in transfected cells; host or cells: HEK293; conditions: for inhibition at 5 min, 20 μM / (S,S)-Ethambutol inhibition [%] / ASP+ inhibition [%] / Sumatriptan inhibition [%]: OCT1, 20 μM inhibitor, 5 min
T3 sequence (O15245 1-554): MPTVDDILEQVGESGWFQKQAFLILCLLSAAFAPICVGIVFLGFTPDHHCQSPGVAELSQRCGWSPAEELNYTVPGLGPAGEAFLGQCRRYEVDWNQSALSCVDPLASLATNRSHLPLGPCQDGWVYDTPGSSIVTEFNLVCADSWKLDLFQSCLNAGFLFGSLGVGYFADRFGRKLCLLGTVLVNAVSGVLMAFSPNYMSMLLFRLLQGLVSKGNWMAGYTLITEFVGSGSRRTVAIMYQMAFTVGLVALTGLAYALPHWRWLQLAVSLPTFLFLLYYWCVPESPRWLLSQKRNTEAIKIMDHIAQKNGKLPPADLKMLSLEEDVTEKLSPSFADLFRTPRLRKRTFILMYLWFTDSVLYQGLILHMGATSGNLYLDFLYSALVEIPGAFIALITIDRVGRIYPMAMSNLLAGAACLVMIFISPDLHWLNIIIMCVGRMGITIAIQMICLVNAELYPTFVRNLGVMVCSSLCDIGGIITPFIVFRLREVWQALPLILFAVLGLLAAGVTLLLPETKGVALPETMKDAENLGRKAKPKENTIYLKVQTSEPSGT
Description: Koepsell and Gorbulev (University of Würzburg, Germany).
Fluorescence quantification was performed in technical duplicates.

[1] = human, OCT2-overexpressing HEK293 cells, pH 7.4, probe (S,S)-ethambutol (2 μM), (S,S)-Ethambutol inhibition [%], 2 μM (S,S)-ethambutol
[2] = human, OCT2-overexpressing HEK293 cells, pH 7.4, probe ASP+ (2 μM), ASP+ inhibition [%], 2 μM ASP+
[3] = human, OCT2-overexpressing HEK293 cells, pH 7.4, probe N-ethyllidocaine (2 μM), N-Ethyllidocaine inhibition [%], 2 μM N-ethyllidocaine
[4] = HEK293, 5 min, read-out: (S)-Zolmitriptan inhibition [%], OCT3, 2 μM (S)-zolmitriptan, 5 min
[5] = HEK293, 5 min, read-out: (S,S)-Ethambutol inhibition [%], OCT3, 2 μM (S,S)-ethambutol, 5 min
[6] = HEK293, OCT3, 2 μM ASP+, 5 min, read-out: ASP+ inhibition [%]
[7] = human, OCT1-overexpressing HEK293 cells, pH 7.4, probe (S,S)-ethambutol (2 μM), (S,S)-Ethambutol inhibition [%], 2 μM (S,S)-ethambutol
[8] = human, OCT1-overexpressing HEK293 cells, pH 7.4, probe ASP+ (2 μM), 2 μM ASP+, mean of three experiments, read-out: ASP+ inhibition [%]
[9] = human, OCT1-overexpressing HEK293 cells, pH 7.4, probe sumatriptan (2 μM), 2 μM sumatriptan, read-out: Sumatriptan inhibition [%]
[10] = 2 μM ASP+, mean of three experiments

SMILES | inhibition at 5 min, 20 μM (OCT2; [1]) | inhibition at 5 min, 20 μM (OCT2; [2]) | inhibition at 5 min, 20 μM (OCT2; [3]) | inhibition at 20 µM (OCT3; [4]) | inhibition at 20 µM (OCT3; [5]) | inhibition at 20 µM (OCT3; [6]) | inhibition at 5 min, 20 μM (OCT1; [7]) | inhibition at 5 min, 20 μM (OCT1; [8]) | inhibition at 5 min, 20 μM (OCT1; [9]) | (S,S)-Ethambutol inhibition [%] (OCT2; 2 μM (S,S)-ethambutol) | ASP+ inhibition [%] (OCT2; 2 μM ASP+) | N-Ethyllidocaine inhibition [%] (OCT2; 2 μM N-ethyllidocaine) | (S)-Zolmitriptan inhibition [%] (OCT3; 2 μM (S)-zolmitriptan, 5 min) | (S,S)-Ethambutol inhibition [%] (OCT3; 2 μM (S,S)-ethambutol, 5 min) | ASP+ inhibition [%] (OCT3; 2 μM ASP+, 5 min) | (S,S)-Ethambutol inhibition [%] (OCT1; 2 μM (S,S)-ethambutol) | ASP+ inhibition [%] (OCT1; [10]) | Sumatriptan inhibition [%] (OCT1; 2 μM sumatriptan) | other results
C=C[C@H]1C[N@@]2CC[C@H]1C[C@@H]2[C@@H](O)c1ccnc2ccc(OC)cc12 [Quinidine] | 13.3% | 93.4% | 50.8% | 67% | 85.9% | 38.9% | 61.7% | 13.1% | 41.3% | – | – | – | – | – | – | – | – | – | IC50 (OCT3; OCT3, Table S5, 2 μM ASP+ or ethambutol as model substrate, 5 min): 249 µM
Cc1cccc(C)c1OC[C@@H](C)N [(R)-Mexiletine] | 52.1% | 47% | 52.2% | 25% | 11.6% | -17.2% | 79.6% | 30.4% | 85.6% | – | – | – | – | – | – | – | – | – | –
C#CCN[C@H]1CCc2ccccc21 [(S)-Rasagiline] | 57% | 59.6% | 59.5% | – | – | – | – | – | – | – | – | – | 6.7% | 8.8% | -7.7% | 37.5% | 6.9% | 50.6% | –
N[C@H]1CONC1=O [(S)-Cycloserine] | – | – | – | – | – | – | – | – | – | 0.8% | 14.6% | 14.6% | 6.3% | 12.2% | 19.3% | 0.3% | -2.6% | 35.9% | –

The next lines start with results.

inhibition at 5 min, 20 μM (OCT2; [1]) | inhibition at 5 min, 20 μM (OCT2; [2]) | inhibition at 5 min, 20 μM (OCT2; [3]) | inhibition at 20 µM (OCT3; [4]) | inhibition at 20 µM (OCT3; [5]) | inhibition at 20 µM (OCT3; [6]) | inhibition at 5 min, 20 μM (OCT1; [7]) | inhibition at 5 min, 20 μM (OCT1; [8]) | inhibition at 5 min, 20 μM (OCT1; [9]) | (S,S)-Ethambutol inhibition [%] (OCT2; 2 μM (S,S)-ethambutol) | ASP+ inhibition [%] (OCT2; 2 μM ASP+) | N-Ethyllidocaine inhibition [%] (OCT2; 2 μM N-ethyllidocaine) | (S)-Zolmitriptan inhibition [%] (OCT3; 2 μM (S)-zolmitriptan, 5 min) | (S,S)-Ethambutol inhibition [%] (OCT3; 2 μM (S,S)-ethambutol, 5 min) | ASP+ inhibition [%] (OCT3; 2 μM ASP+, 5 min) | (S,S)-Ethambutol inhibition [%] (OCT1; 2 μM (S,S)-ethambutol) | ASP+ inhibition [%] (OCT1; [10]) | Sumatriptan inhibition [%] (OCT1; 2 μM sumatriptan) | SMILES | other results
– | – | – | – | – | – | – | – | – | 28.4% | 57.3% | 32.4% | 38.2% | 32.0% | -2.9% | 74.3% | 40.6% | 82.8% | CC(C)NC[C@H](O)COc1cccc2ccccc12 [(S)-Propranolol] | IC50 (OCT3; OCT3, Table 1): 69 µM
– | 23.1% | 5.4% | – | – | – | – | – | – | -1.8% | – | – | -4.3% | 5.7% | 8.4% | -19.9% | -4.8% | -1.3% | NC[C@H](O)c1ccc(O)c(O)c1 [(R)-Norepinephrine] | –
38.5% | 43.1% | 50.2% | 37.2% | 33.4% | 24.3% | 50.6% | 23.5% | 43.9% | – | – | – | – | – | – | – | – | – | CCCCN1CCCC[C@H]1C(=O)Nc1c(C)cccc1C [(S)-Bupivacaine] | IC50 (OCT2; IC50 [μM], OCT2, Table 1): 48.4 µM; selectivity ratio at 5 min (OCT2; human, OCT2-overexpressing HEK293 cells, pH 7.4): 2.3; IC50 (OCT1; OCT1, Table 1, read-out: IC50): 18.7 µM; selectivity ratio at 5 min (OCT1; human, OCT1-overexpressing HEK293 cells, pH 7.4, OCT1, Table S5, ratio of the IC50 values of both isomers, label = isomer named in the cell (as a rule the one with the higher IC50), read-out: Stereoselectivity (x-fold for the named isomer)): 1.8
14.5% | 10.9% | 10.4% | -0.8% | 11.3% | 12.9% | -10.6% | 8.8% | -3.4% | – | – | – | – | – | – | – | – | – | CC(C)Cc1ccc([C@H](C)C(=O)O)cc1 [(S)-Ibuprofen] | –
– | – | – | 10.3% | 13.4% | – | 32% | – | 42.7% | 51.3% | 51.7% | 56.7% | – | – | -11.8% | – | -1.3% | – | C#CCN[C@@H]1CCc2ccccc21 [(R)-Rasagiline] | –

Source: article PMC10698726 (Molecular Pharmaceutics, 2023)
